Patent publication US20250136592A1, “C-LINKED INHIBITORS OF ENL/AF9 YEATS” (Bridge Medicines, priority 2021, published 2025)

Legend:
[1] = system: MV4:11 (MLL-AF4 MLL) cells; test: Cell viability assay (CellTiter-Glo), 12 days; type: cell-based; conditions: Homo sapiens, 288 h, MV4;11 cells, 12 day, read-out: CTG_MV4, 11 12 DAY_EC50
Procedure: The assays were conducted over 12 days and the cells being split on days 4 and 8. […] Blank wells received cell culture medium. Plates were incubated for 4 days at 37° C. with 5% CO2. On days 4 and day 8 the cells were split and incubated for a further 4 days whilst an aliquot of cells were taken for the CTG readout. For the cell splitting, 270 nL of compounds or DMSO was added to a new 96 well cell culture plate to which 90 μL of medium plus 10 μL of cells from the original assay plate (after mixing) or 100 μL of medium (Blank wells) was added. This was repeated on day 8.
Cell viability was assessed using the CellTiter-Glo® homogeneous luminescent assay kit (Promega, G9243), according to the manufacturer's instructions. This quantifies ATP, which indicates the presence of metabolically active cells. […] The resulting data were analyzed as follows:
where vehicle are cells treated with 0.3% DMSO, Blank is culture medium. IC50 determinations were calculated by fitting the curve using XLfit (v5.3.1.3): Y=Bottom+(Top−Bottom)/(1+10^((LogIC50−X)*HillSlope)).

ENL YEATS domain = ENL YEATS domain (Homo sapiens (Human), UniProt Q03111); test: TR-FRET ENL Screening Assay; conditions: 6xHIS ENL YEATS domain binding to H3K9cr peptide
Procedure: Compounds of the invention were tested in a TR-FRET ENL Screening Assay. TR-FRET (time-resolved fluorescence energy transfer) can be used to quantify ENL YEATS domain binding to a crotonylated histone peptide (H3K9cr, aa1-20). Streptavidin-Europium (Eu) chelate binds the biotinylated peptide, while Anti-6×HIS ULight™ binds 6×HIS-ENL. When Eu chelate is excited at 320 nm, fluorescence resonance energy transfer (FRET) occurs if Eu and ULight are made proximal by ENL binding to the acyl-peptide.
Low control (LC) wells received 5 μL of assay buffer instead of ENL protein. […] The response at each compound concentration minus the LC value was converted to percent inhibition of the vehicle control group response (HC-LC).

Sequence of ENL YEATS domain (Q03111 1-138): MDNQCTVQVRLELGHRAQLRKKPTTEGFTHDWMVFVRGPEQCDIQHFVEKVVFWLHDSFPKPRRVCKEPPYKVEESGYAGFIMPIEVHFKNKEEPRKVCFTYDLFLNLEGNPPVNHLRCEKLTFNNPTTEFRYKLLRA

Q: What does the source list for `CN1C(=O)COc2cc(C(=O)Nc3cc4[nH]c([C@H]5CCCCN5C)cc4cn3)ccc21` [Example 105, (R)-4-methyl-N-(2-(1-methylpiperidin-2-yl)-1H-pyrrolo[3,2-c]pyridin-6-yl)-3-oxo-3,4-dihydro-2H-benzo[b][1,4]oxazine-7-carboxamide]?
A: EC50 [1]: 416 nM; IC50 (ENL YEATS domain): 145 nM
